What follows are compounds tested against T1, human recombinant DPP-IV (Homo sapiens, UniProt P27487) (assay: biochemical).
T1 construct: purchased Enzo Life Sciences AK499-0001
Description: The potency of the tested compounds is described upon the degree in inhibition of DPP-IV cleavage of the chromogenic substrate Gly-Pro-pNA (pNA is p-nitroaniline), expressed as IC50 values.
The assay was performed in 96-well plates at 37°C. First the enzyme was preincubated with the test compounds for 10 min. Therefore each well was filled with 0.18 mU of enzyme and variable concentrations of the inhibitor. Each well was filled up with Tris buffer (50 mM, pH 7.5) to a final volume of 200 µL. For dilutions of all test compounds DMSO was used.
The assay was repeated 3 times for each test compound. IC50 values were calculated after plotting the data for up to eight inhibitor concentrations by mean.
By measuring the rate of hydrolysis of Gly-Pro-pNA at four different concentrations of substrate and inhibitor the type of inhibition was determined. […] For each concentration of inhibitor the initial rates were used for Lineweaver-Burk plot.

T1 sequence (P27487 whole entry): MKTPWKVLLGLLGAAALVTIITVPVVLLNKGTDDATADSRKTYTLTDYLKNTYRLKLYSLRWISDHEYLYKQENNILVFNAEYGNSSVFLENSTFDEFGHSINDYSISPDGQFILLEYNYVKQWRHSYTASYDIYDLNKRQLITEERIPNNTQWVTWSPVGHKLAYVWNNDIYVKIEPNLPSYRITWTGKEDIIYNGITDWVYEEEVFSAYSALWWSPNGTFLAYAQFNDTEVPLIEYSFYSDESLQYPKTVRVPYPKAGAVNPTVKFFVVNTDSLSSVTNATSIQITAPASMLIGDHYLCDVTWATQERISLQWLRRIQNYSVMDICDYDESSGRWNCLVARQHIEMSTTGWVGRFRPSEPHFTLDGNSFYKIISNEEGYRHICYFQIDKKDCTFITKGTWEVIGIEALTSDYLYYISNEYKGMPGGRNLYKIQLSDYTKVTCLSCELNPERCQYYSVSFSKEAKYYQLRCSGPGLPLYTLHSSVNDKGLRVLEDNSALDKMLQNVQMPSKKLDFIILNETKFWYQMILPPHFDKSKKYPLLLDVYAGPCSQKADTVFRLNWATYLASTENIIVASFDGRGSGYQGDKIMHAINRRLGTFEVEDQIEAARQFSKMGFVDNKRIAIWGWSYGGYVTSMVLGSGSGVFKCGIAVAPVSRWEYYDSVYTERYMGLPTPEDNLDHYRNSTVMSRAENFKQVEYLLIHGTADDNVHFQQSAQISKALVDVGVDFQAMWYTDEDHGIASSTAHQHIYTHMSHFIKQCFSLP

IC50 | Structure (SMILES)
< 10 µM | Cc1nc(C(=O)O)cc(-c2ccc(F)cc2)c1CN [(XIII)]
< 10 µM | Cc1nc(C(=O)O)cc(-c2ccccc2F)c1CN [(XIV)]
< 10 µM | Cc1nc(-c2ccc(Cl)cc2Cl)cc(C(=O)O)c1CN [regioisomer (XV), reference compound]

Reference: patent publication EP2308847B1, “Substituted pyridines as inhibitors of dipeptidyl peptidase IV and their application for the treatment of diabetes and related diseases” (EMC microcollections GmbH, priority 2009, dated 2011)
